From patent US20260262643A1, “HERBICIDAL BENZOXAZINES” (FMC CORPORATION, priority 2022, published 2026)

Experiments:
wheat [1] = test: Test C preemergence; assay type: in vivo, Triticum aestivum; settings: 0 to 100 scale (0 no effect, 100 complete control)
In short: (§1)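 Greenhouse herbicide screen, 10-day duration. Test chemicals in solvent/surfactant blend were sprayed onto soil at sowing (pre) or onto 2–10 cm seedlings at one to two leaves (post); injury scored visually against controls, 0 no effect to 100 complete control.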

pigweed, palmer [2] = test: Test C preemergence; assay type: in vivo, Amaranthus palmeri; settings: 0 to 100 scale (0 no effect, 100 complete control)
In short: as §1

sedge, umbrella = test: Test D flooded paddy test; assay type: in vivo, Cyperus difformis; settings: 250 g ai/ha, applied to paddy water, visual rating after 13 to 14 days, scale 0 to 100 (0 no effect, 100 complete control)
In short: (§2)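 Plants at the 2-leaf stage were grown in pots flooded to 3 cm, and compound was applied directly into the paddy water, with depth kept throughout. After 13–14 days in a greenhouse, injury was rated visually against untreated controls on a 0–100 scale (100 = complete control); a dash means not tested.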

green foxtail [3] = test: Test C preemergence; assay type: in vivo, Setaria viridis; settings: 0 to 100 scale (0 no effect, 100 complete control)
In short: as §1

barnyardgrass [4] = test: Test D flooded paddy test; assay type: in vivo, Echinochloa crus-galli; settings: 250 g ai/ha, applied to paddy water, visual rating after 13 to 14 days, scale 0 to 100 (0 no effect, 100 complete control)
In short: as §2

wheat [5] = test: Test C postemergence; assay type: in vivo, Triticum aestivum; settings: 10 days
In short: as §1

kochia [6] = test: Test C postemergence; assay type: in vivo, Bassia scoparia; settings: 10 days
In short: as §1

ryegrass, Italian [7] = test: Test C postemergence; assay type: in vivo, Lolium multiflorum; settings: 10 days
In short: as §1

ducksalad = test: Test D flooded paddy test; assay type: in vivo, Heteranthera limosa; settings: 250 g ai/ha, applied to paddy water, visual rating after 13 to 14 days, scale 0 to 100 (0 no effect, 100 complete control)
In short: as §2

soybean [8] = test: Test C postemergence; assay type: in vivo, Glycine max; settings: 10 days
In short: as §1

rice = test: Test D flooded paddy test; assay type: in vivo, Oryza sativa; settings: 250 g ai/ha, applied to paddy water, visual rating after 13 to 14 days, scale 0 to 100 (0 no effect, 100 complete control)
In short: as §2

soybean [9] = test: Test C preemergence; assay type: in vivo, Glycine max; settings: 0 to 100 scale (0 no effect, 100 complete control)
In short: as §1

kochia [10] = test: Test C preemergence; assay type: in vivo, Bassia scoparia; settings: 0 to 100 scale (0 no effect, 100 complete control)
In short: as §1

blackgrass [11] = test: Test C preemergence; assay type: in vivo, Alopecurus myosuroides; settings: 0 to 100 scale (0 no effect, 100 complete control)
In short: as §1

barnyardgrass [12] = test: Test C preemergence; assay type: in vivo, Echinochloa crusgalli; settings: 0 to 100 scale (0 no effect, 100 complete control)
In short: as §1

horseweed = test: Test C postemergence; assay type: in vivo, Erigeron canadensis; settings: 10 days
In short: as §1

barnyardgrass [13] = test: Test C postemergence; assay type: in vivo, Echinochloa crusgalli; settings: 10 days
In short: as §1

oat, wild [14] = test: Test C preemergence; assay type: in vivo, Avena fatua; settings: 0 to 100 scale (0 no effect, 100 complete control)
In short: as §1

pigweed, palmer [15] = test: Test C postemergence; assay type: in vivo, Amaranthus palmeri; settings: 10 days
In short: as §1

blackgrass [16] = test: Test C postemergence; assay type: in vivo, Alopecurus myosuroides; settings: 10 days
In short: as §1

corn [17] = test: Test C preemergence; assay type: in vivo, Zea mays; settings: 0 to 100 scale (0 no effect, 100 complete control)
In short: as §1

green foxtail [18] = test: Test C postemergence; assay type: in vivo, Setaria viridis; settings: 10 days
In short: as §1

ryegrass, Italian [19] = test: Test C preemergence; assay type: in vivo, Lolium multiflorum; settings: 0 to 100 scale (0 no effect, 100 complete control)
In short: as §1

galium = test: Test C postemergence; assay type: in vivo, Galium aparine; settings: 10 days
In short: as §1

ragweed [20] = test: Test C postemergence; assay type: in vivo, Ambrosia artemisiifolia; settings: 10 days
In short: as §1

ragweed [21] = test: Test C preemergence; assay type: in vivo, Ambrosia artemisiifolia; settings: 0 to 100 scale (0 no effect, 100 complete control)
In short: as §1

oat, wild [22] = test: Test C postemergence; assay type: in vivo, Avena fatua; settings: 10 days
In short: as §1

corn [23] = test: Test C postemergence; assay type: in vivo, Zea mays; settings: 10 days
In short: as §1

[24] = Preemergence, 500 g ai/ha, visual rating after 10 days
[25] = Test C, preemergence, 125 g ai/ha
[26] = 125 g ai/ha, postemergence, 0 to 100 scale, 0 no effect, 100 complete control
[27] = Postemergence, 500 g ai/ha, visual 0 to 100 scale (0 no effect, 100 complete control)

SMILES: COc1c(F)cc(-n2cnc(C(C)C)n2)cc1C(=O)N1C[C@H](C)Oc2c(Cl)cccc21 [Compound 177]
- Plant response rating, Wheat (wheat [1]; [24]): 60
- Wheat plant response rating (wheat [1]; [25]): 30
- Plant response rating, Pigweed, Palmer (pigweed, palmer [2]; [24]): 100
- Pigweed, Palmer plant response rating (pigweed, palmer [2]; [25]): 100
- Plant response rating, Sedge, Umbrella (Flood) (sedge, umbrella): 95
- Plant response rating, Foxtail, Green (green foxtail [3]; [24]): 100
- Foxtail, Green plant response rating (green foxtail [3]; [25]): 100
- Plant response rating, Barnyardgrass (Flood) (barnyardgrass [4]): 35
- Plant response rating, Wheat (wheat [5]; [26]): 30
- Plant response rating, Wheat (wheat [5]; [27]): 50
- Plant response rating, Kochia (kochia [6]; [26]): 90
- Plant response rating, Kochia (kochia [6]; [27]): 100
- Plant response rating, Ryegrass, Italian (ryegrass, Italian [7]; [26]): 80
- Plant response rating, Ryegrass, Italian (ryegrass, Italian [7]; [27]): 90
- Plant response rating, Ducksalad (Flood) (ducksalad): 50
- Plant response rating, Soybean (soybean [8]; [26]): 100
- Plant response rating, Soybean (soybean [8]; [27]): 100
- Plant response rating, Rice (Flood) (rice): 0
- Plant response rating, Soybean (soybean [9]; [24]): 90
- Soybean plant response rating (soybean [9]; [25]): 60
- Plant response rating, Kochia (kochia [10]; [24]): 100
- Kochia plant response rating (kochia [10]; [25]): 80
- Plant response rating, Blackgrass (blackgrass [11]; [24]): 60
- Blackgrass plant response rating (blackgrass [11]; [25]): 40
- Plant response rating, Barnyardgrass (barnyardgrass [12]; [24]): 100
- Barnyardgrass plant response rating (barnyardgrass [12]; [25]): 100
- Plant response rating, Horseweed (horseweed; [26]): 30
- Plant response rating, Horseweed (horseweed; [27]): 80
- Plant response rating, Barnyardgrass (barnyardgrass [13]; [26]): 30
- Plant response rating, Barnyardgrass (barnyardgrass [13]; [27]): 70
- Plant response rating, Oat, Wild (oat, wild [14]; [24]): 90
- Oat, Wild plant response rating (oat, wild [14]; [25]): 80
- Plant response rating, Pigweed, Palmer (pigweed, palmer [15]; [26]): 90
- Plant response rating, Pigweed, Palmer (pigweed, palmer [15]; [27]): 100
- Plant response rating, Blackgrass (blackgrass [16]; [26]): 90
- Plant response rating, Blackgrass (blackgrass [16]; [27]): 90
- Plant response rating, Corn (corn [17]; [24]): 30
- Corn plant response rating (corn [17]; [25]): 30
- Plant response rating, Foxtail, Green (green foxtail [18]; [26]): 90
- Plant response rating, Foxtail, Green (green foxtail [18]; [27]): 90
- Plant response rating, Ryegrass, Italian (ryegrass, Italian [19]; [24]): 100
- Ryegrass, Italian plant response rating (ryegrass, Italian [19]; [25]): 100
- Plant response rating, Galium (galium; [26]): 90
- Plant response rating, Galium (galium; [27]): 100
- Plant response rating, Ragweed (ragweed [20]; [26]): 80
- Plant response rating, Ragweed (ragweed [20]; [27]): 70
- Plant response rating, Ragweed (ragweed [21]; [24]): 90
- Ragweed plant response rating (ragweed [21]; [25]): 90
- Plant response rating, Oat, Wild (oat, wild [22]; [26]): 60
- Plant response rating, Oat, Wild (oat, wild [22]; [27]): 80
- Plant response rating, Corn (corn [23]; [26]): 40
- Plant response rating, Corn (corn [23]; [27]): 60
